Each structure is given as a SMILES string. pIC50: −log10 of the molar value.

T1 sequence (P41279 30-398): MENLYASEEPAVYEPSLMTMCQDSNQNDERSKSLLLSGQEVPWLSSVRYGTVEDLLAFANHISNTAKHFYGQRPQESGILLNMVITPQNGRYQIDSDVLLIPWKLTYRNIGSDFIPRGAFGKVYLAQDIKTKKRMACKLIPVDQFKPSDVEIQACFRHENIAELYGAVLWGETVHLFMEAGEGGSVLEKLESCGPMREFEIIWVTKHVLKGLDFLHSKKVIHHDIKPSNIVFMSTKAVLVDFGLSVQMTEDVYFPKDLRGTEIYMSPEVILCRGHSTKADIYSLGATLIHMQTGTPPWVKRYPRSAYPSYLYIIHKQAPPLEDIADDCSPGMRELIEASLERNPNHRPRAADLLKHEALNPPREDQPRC

The first test has as its target T1, human Cot/Tpl2 kinase (Homo sapiens, UniProt P41279).
T1 construct: human Cot/Tpl2 kinase construct encoding residues 30-398; 6His (N); made in house; host or cells: Sf9 insect cells (baculovirus system, BD Biosciences)
The test can be described thus: Tpl2/Cot kinase assay, GST-MEK1 phosphorylation detected by ELISA (DELFIA Eu). The format is biochemical. The note with it: Table 1; 0.4 nM Tpl2, 35 nM GST-MEK1, 50 uM ATP, 1 h at 30° C. The method, then:
Sf9 cells expressing the kinase were lysed in 50 mM NaPhosphate pH=8; 300 mM NaCl; 5 mM imidazole; 0.1 mM EGTA; 25 mM beta-glycerophosphate; 1% TX-100, 1% glycerol; 6 mM beta-mercaptoethanol and protease inhibitors. The lysate was clarified by centrifugation and was loaded onto a Ni-Sepharose column. The column was washed with 50 mM NaPhosphate pH=8; 300 mM NaCl; 15 mM imidazole; 1% glycerol; and 6 mM beta-mercaptoethanol. His-Tpl2 was eluted with 50 mM NaPhosphate pH=8; 300 mM NaCl; 250 mM imidazole; 1% glycerol; and 6 mM beta-mercaptoethanol. The eluted protein was further purified by size exclusion chromatography. Fractions corresponding to monomeric Tpl2 were then used in the assay.
Tpl2/Cot activity was directly assayed using GST-MEK1 as a substrate. GST-MEK1 phosphorylation on serine residues 217 and 221 was detected by ELISA. 0.4 nM Tpl2 was incubated with 35 nM GST-MEK1 in a kinase reaction buffer containing 20 mM MOPS pH=7.2; 50 uM ATP; 20 mM MgCl2; 1 mM DTT; 25 mM β-glycerophosphate; 5 mM EGTA; and 1 mM sodium orthovanadate for 1 h at 30° C. The compounds of the inventions solubilized in 100% DMSO were pre-diluted in assay buffer so that the final concentration of DMSO in the reaction was 1%. The kinase reaction was carried out in 100 ul volume on 96 well plates. The kinase reaction was then stopped with the addition of 100 mM EDTA. […] After a 1 hour incubation at room temperature, the detection plate was washed 4 times with TBST (TBS+0.05% Tween 20) and then incubated for another hour at room temperature with anti phospho-MEK1 antibody (Cell Signaling) 1:1000 in 10 mM MOPS 7.5; 150 mM NaCl; 0.05% Tween 20; 0.1% Gelatin; 0.02% NaN3; and 1% BSA. The detection plate was washed again and incubated for 30 min with DELFIA Europium (Eu) labeled goat anti-rabbit IgG (Perkin-Elmer), 1:4000 in the same buffer used for the primary incubation. After a final wash, Eu detection solution was added to each well and the Eu signal was measured in a Wallac Victor^2 Multilabel Counter. IC50 calculations were preformed using the XLfit software package (IDBS, Guildford, UK).
What is called pIC50 is the negative decadic logarithm of the IC50, by convention in mol/L. A low value points to a large IC50. For the compound `CN(C)CCNc1cc2c(Nc3ccc(Cc4ccccc4)cc3)c(C#N)cnc2cn1` [Example 23, 4-(4-benzylphenylamino)-6-(2-(dimethylamino)ethylamino)-1,7-naphthyridine-3-carbonitrile], the pIC50 was 7.44.
The same measure, in the same setting: the figure for `N#Cc1cnc2cnc(N[C@H]3CCCc4ccccc43)cc2c1Nc1ccc(F)c(Cl)c1` [Example 71] is 5.41.
On the same count and under the same terms, the figure for `N#Cc1cnc2cnc(NCc3cccnc3)cc2c1Nc1ccc(F)c(F)c1` [Example 20, 4-(3,4-difluorophenylamino)-6-(pyridin-3-ylmethylamino)-1,7-naphthyridine-3-carbonitrile] is 6.54; for `CN(c1ccc(F)c(Cl)c1)c1c(C#N)cnc2cnc(NCCN3CCOCC3)cc12` [Example 89, 4-((3-chloro-4-fluorophenyl)(methyl)amino)-6-(2-morpholinoethylamino)-1,7-naphthyridine-3-carbonitrile] it is less than 4.40; for `N#Cc1cnc2cnc(NCc3cccnc3)cc2c1Nc1cc(Cl)cc(Cl)c1` [Example 69, 4-[(3,5-dichlorophenyl)amino]-6-[(pyridin-3-ylmethyl)amino]-1,7-naphthyridine-3-carbonitrile] it is 5.39.
On the same count and under the same terms, the figure for `COC(=O)c1cccc(Nc2c(C#N)cnc3cnc(NCCN4CCOCC4)cc23)c1` [Example 83, Methyl 3-(3-cyano-6-(2-morpholinoethylamino)-1,7-naphthyridin-4-ylamino)benzoate] is less than 5.00; for `CC#Cc1cccc(Nc2c(C#N)cnc3cnc(NCCN4CCOCC4)cc23)c1` [Example 79, 6-(2-morpholinoethylamino)-4-(3-(prop-1-ynyl)phenylamino)-1,7-naphthyridine-3-carbonitrile] it is less than 5.00.
In turn, `N#Cc1cnc2cnc(NCCN3CCOCC3)cc2c1Nc1ccc(Cc2ccccc2)cc1` [Example 7, 4-(4-benzylphenylamino)-6-(2-morpholinoethylamino)-1,7-naphthyridine-3-carbonitrile] showed a pIC50 of 8.10.
The same measure, in the same setting: under `CC[C@@H](Nc1cc2c(Nc3ccc(F)c(Cl)c3)c(C#N)cnc2cn1)c1ccccc1` [Example 51, 4-[(3-chloro-4-fluorophenyl)amino]-6-{[(1R)-1-phenylpropyl]amino}-1,7-naphthyridine-3-carbonitrile] stands 6.39; under `CC(C)c1cccc(Nc2c(C#N)cnc3cnc(NCCN4CCOCC4)cc23)c1` [Example 37, 4-[(3-isopropylphenyl)amino]-6-[(2-morpholin-4-ylethyl)amino]-1,7-naphthyridine-3-carbonitrile], less than 4.40.
The same measure, in the same setting: under `CCN1CCC[C@@H]1CNc1cc2c(Nc3ccc(F)c(Cl)c3)c(C#N)cnc2cn1` [Example 75] stands 5.15; under `N#Cc1cnc2cnc(N[C@H]3CCc4ccccc43)cc2c1Nc1ccc(F)c(Cl)c1` [Example 72], 5.82.
Same read-out and setting: under `N#Cc1cnc2cnc(NCCN3CCOCC3)cc2c1Nc1ccc(Nc2ccccc2)cc1` [Example 10, 6-(2-morpholinoethylamino)-4-(4-(phenylamino)phenylamino)-1,7-naphthyridine-3-carbonitrile] stands 5.12.
Consider `N#Cc1cnc2cnc(NCc3cccnc3)cc2c1Nc1cccc(Oc2ccccc2)c1` [Example 15, 4-(3-phenoxyphenylamino)-6-(pyridin-3-ylmethylamino)-1,7-naphthyridine-3-carbonitrile], for which the pIC50 is less than 4.40.
With `C[C@H](O)CNc1cc2c(Nc3ccc(F)c(Cl)c3)c(C#N)cnc2cn1` [Example 56, 4-[(3-chloro-4-fluorophenyl)amino]-6-{[(2S)-2-hydroxypropyl]amino}-1,7-naphthyridine-3-carbonitrile], the pIC50 was 5.44.
Same read-out and setting: the figure for `N#Cc1cnc2cnc(NCCN3CCOCC3)cc2c1Nc1cccc(I)c1` [Example 78, 4-(3-iodophenylamino)-6-(2-morpholinoethylamino)-1,7-naphthyridine-3-carbonitrile] is 5.15.
The same measure, in the same setting: the figure for `N#Cc1cnc2cnc(N[C@@H]3CCCc4ccccc43)cc2c1Nc1ccc(F)c(Cl)c1` [Example 70] is 5.82; for `N#Cc1cnc2cnc(NCCN3CCOCC3)cc2c1Nc1cccc(F)c1` [Example 24, 4-(3-fluorophenylamino)-6-(2-morpholinoethylamino)-1,7-naphthyridine-3-carbonitrile] it is 5.95; for `N#Cc1cnc2cnc(NCc3cccnc3)cc2c1Nc1ccc(Cl)cc1` [Example 16, 4-(4-chlorophenylamino)-6-(pyridin-3-ylmethylamino)-1,7-naphthyridine-3-carbonitrile] it is less than 5.00.
Still for that read-out and setting: the figure for `N#Cc1cnc2cnc(NCCN3CCOCC3)cc2c1Nc1ccc(Oc2ccccc2)cc1` [Example 41, 6-[(2-morpholin-4-ylethyl)amino]-4-[(4-phenoxyphenyl)amino]-1,7-naphthyridine-3-carbonitrile] is 6.52.
`C[C@@H](Nc1cc2c(Nc3cc(Cl)cc(Cl)c3)c(C#N)cnc2cn1)c1ccccc1` [Example 68] showed a pIC50 of 6.03.
On the same count and under the same terms, the figure for `N#Cc1cnc2cnc(OCCN3CCOCC3)cc2c1Nc1ccc(F)c(Cl)c1` [Example 39, 4-[(3-chloro-4-fluorophenyl)amino]-6-(2-morpholin-4-ylethoxy)-1,7-naphthyridine-3-carbonitrile] is less than 4.40.

Still in this test, the particulars now being: Table 2; additional representative compounds.
`CC(Nc1cc2c(Nc3ccc(F)c(Cl)c3)c(C#N)cnc2cn1)c1ccccc1` (stereo not drawn) [Example 115, 4-[(3-chloro-4-fluorophenyl)amino]-6-[(1-phenylethyl)amino]-1,7-naphthyridine-3-carbonitrile] had a pIC50 of less than 4.40.
Consider `N#Cc1cnc2cnc(F)cc2c1NCc1ccc(F)c(Cl)c1` [Example 98, 4-[(3-chloro-4-fluorobenzyl)amino]-6-fluoro-1,7-naphthyridine-3-carbonitrile], for which the pIC50 was less than 4.40.
Still for that read-out and setting: under `N#Cc1cnc2cnc(NC3CCCCCC3)cc2c1Nc1ccc(F)c(Cl)c1` [Example 144, 4-[(3-chloro-4-fluorophenyl)amino]-6-(cycloheptylamino)-1,7-naphthyridine-3-carbonitrile] stands 5.28.
On the same count and under the same terms, under `C[C@@H](Nc1cc2c(N(C)C3CCCCCC3)c(C#N)cnc2cn1)c1ccccc1` [Example 137, 4-[cycloheptyl(methyl)amino]-6-{[(1R)-1-phenylethyl]amino}-1,7-naphthyridine-3-carbonitrile] stands less than 4.40.
The same measure, in the same setting: the figure for `N#Cc1cnc2cnc(NCc3cccc(Br)c3)cc2c1Nc1ccc(F)c(Cl)c1` [Example 121, 6-[(3-bromobenzyl)amino]-4-[(3-chloro-4-fluorophenyl)amino]-1,7-naphthyridine-3-carbonitrile] is 6.37.
In turn, `N#Cc1cnc2cnc(NCCc3ccc(S(N)(=O)=O)cc3)cc2c1Nc1ccc(F)c(Cl)c1` [Example 120, 4-(2-(4-(3-chloro-4-fluorophenylamino)-3-cyano-1,7-naphthyridin-6-ylamino)ethyl)benzenesulfonamide] gave a pIC50 of 6.64.
Still for that read-out and setting: the figure for `C[C@@H](Nc1cc2c(NC3CCCCCC3)c(C#N)cnc2cn1)c1ccccc1` [Example 133, 4-(cycloheptylamino)-6-{[(1R)-1-phenylethyl]amino}-1,7-naphthyridine-3-carbonitrile] is 6.04.
Same read-out and setting: the figure for `C[C@@H](Nc1cc2c(N[C@H](C)c3ccccc3)c(C#N)cnc2cn1)c1ccccc1` [Example 131, 4,6-bis{[(1R)-1-phenylethyl]amino}-1,7-naphthyridine-3-carbonitrile] is 6.25.

For the origin of these results see patent US20060276498A1 (Wyeth, priority 2005, published 2006).
